Data: US9702824B2, “pH sensors” (PROMEGA CORPORATION, priority 2012, dated 2017)

Key:
[1] = pH dependence of fluorescence emission; type: physicochemical
Experimental: Experiments were conducted during development of embodiments of the present invention to determine the fluorescence characteristics of exemplary pH sensor agents PBI-4453 and PBI-4479 (SEE FIG. 1). Fluorescence excitation and emission intensities were measured at a range of wavelengths (SEE FIG. 2). […] Fluorescence detection was performed at a range of pH values (SEE FIG. 3).

[2] = Fluorescence intensity loss and recovery when titrated with base and acid; type: physicochemical; conditions: titrated from pH 4 to approximately 8 with NaOH and back to approximately 4 with HCl
Experimental: This example was performed to determine if fluorescence intensity of a pH sensor of the present invention, PBI-4479, which is mostly fluorescent at pH 4, could be recovered when titrated to basic pH, then back to acidic pH. In order to limit disruption of the concentration of the sensor, the experiment was run in a large volume, and the pH was adjusted dropwise with a concentrated base, then with an acid. The product was first dissolved in DMSO to create a concentrated stock, and then a small amount was diluted into 100 mL 10 mM sodium phosphate buffer pH 4.0. Fluorescence was recorded on a HoribaJobinYvon Fluorolog throughout the experiment using an excitation of 528 nm, and emission at 557 nm maintaining a slit width of 2 nm. Excitation and emission maxima were also determined for each aliquot in the event the fluorescence properties of the molecule changed. pH was monitored using a calibrated pH probe (Denver Instruments Model 215 pH meter). 1 mL aliquots were removed when the solution increased to approximately one pH unit, and fluorescence was measured using the parameters stated above. The solution was first titrated dropwise with 2N sodium hydroxide while stirring, until a pH of approximately 8 was attained. The solution was then titrated down with 4N hydrochloric acid until a pH of approximately 4 was attained.

[3] = Stability in DMSO by HPLC purity; type: physicochemical; conditions: 2 mM in DMSO; for HPLC Purity @ 532 nm, Ave: average of days 0-110; for HPLC Purity @ 532 nm: shielded from light
Experimental: PBI-4479 was dissolved to 2 mM in DMSO to approximately 2.33 mg/mL. Aliquots of 350 uL from the 2 mM solution were stored shielded from light at −20° C., 4° C. and room temperature. Stability was established by measuring fluorescent emission intensity and by testing HPLC purity at time 0, 1 day, 1 week, 1 month, 4 months, and 6 months from when the solutions were prepared and stored. For the fluorescence measurements, each aliquot was diluted (1 uL) into 4 mL of 0.1M sodium phosphate pH 4.0 directly into a 4.5 mL plastic cuvette and mixed by inversion of the vial. The maximum emission peak at 562 nm was acquired using a HoribaJobinYvon fluorometer using an excitation of 532 nm with 1.5 nm slit width. For HPLC measurements, each aliquot was diluted to 1 mM in 0.1M sodium phosphate pH 4.0, and 2 uL tested. The purity of each aliquot was tested using an Agilent 1100 liquid chromatography system equipped with a quaternary pump and a diode-array detector. The diode-array detector was set at 254 nm and 532 nm. The elution was performed using a mobile phase (A) containing 0.1% TFA in water, and a mobile phase (B) containing HPLC grade acetonitrile. A Phenomenex Synergi MAX-RP column (50×4.6 mm; 2.6 μm) was used to perform the chromatography. The HPLC was performed as follows: a gradient ran 3% to 60% mobile phase (B) to 3.60 minutes, a hold at 60% mobile phase (B) for 1 minute, a ramp up to 100% mobile phase (B) to 6 minutes, another hold at 100% mobile phase (B) for 2 minutes, and then back to 3% mobile phase (B) for 1.5 minutes. The column was given 2.5 minutes to re-equilibrate back to the starting conditions. In these conditions, the product elutes at approximately 3.7 minutes. Purity (as area percent) of the product was reported at 254 nm and 532 nm.

U2OS cells = assay: Toxicity, CELLTITER-GLO Luminescent Cell Viability Assay (Example 3); type: cell-based; conditions: 0 nM to 20 uM, 24 hour
Experimental: The toxicity of dyes PBI-4479 and PBI-4453 was tested in U2OS cells. The cells were plated at 20,000 cells/well in McCoy's 5A media+10% FBS into wells of a 96-well plate. The compounds were then serially diluted 2-fold in McCoy's 5A+10% FBS to a 10× working solution. 10 ul of the working solution was added to the cells to a final concentration of 0 nM to 20 uM. The treated cells were then incubated overnight at 37° C., 5% CO2. Toxicity was tested using Promega's CELLTITER-GLO Luminescent Cell Viability Assay according to the manufacturer's protocol. No toxicity was seen across varying concentrations of the compounds over the 24 hour period (SEE FIG. 9).

[4] = test system: U2-OS cells stably expressing HaloTag-NLS; assay: pH sensor permeability, pulse and chase with HaloTag Oregon Green (Example 12); conditions: 2 uM pulse for 10 minutes

Question: Which “pH at or below which maximal fluorescence intensity is exhibited” value [1] does the source give for `O=C(NCCOCCOCCOCCOCCOCCOCCCCCCCl)c1ccc(C(=O)[O-])c(-c2c3ccc(=[N+]4CCN(CCCCS(=O)(=O)O)CC4)cc-3oc3cc(N4CCN(CCCCS(=O)(=O)O)CC4)ccc23)c1` [PBI-4479] here?
Answer: Its value is no more than 3.

Question: What about the “percent of maximal fluorescence intensity” value ([1]; at pH 8 or higher) of the same molecule?
Answer: The value was no more than 1%.

Question: And the pKa ([1]; from pH dependence of fluorescence)?
Answer: Its pKa is roughly 6.1.

Question: And the “reversibility of fluorescence intensity” value [2]?
Answer: The value was “fluorescent intensity loss and recovery”.

Question: And the “HPLC Purity @ 532 nm, Ave” value ([3]; 4° C.)?
Answer: The value was 93.6 area percent.

Question: And the “HPLC Purity @ 532 nm, Ave” value ([3]; RT)?
Answer: The value was 92.5 area percent.

Question: What about the “HPLC Purity @ 532 nm” value ([3]; 4° C., 0 days) of the same molecule?
Answer: Its value is 91.8 area percent.

Question: And the “HPLC Purity @ 532 nm” value ([3]; 4° C., 1 day)?
Answer: Its value is 92.5 area percent.

Question: And the “HPLC Purity @ 532 nm” value ([3]; 4° C., 7 days)?
Answer: The value was 93.9 area percent.

Question: And the “HPLC Purity @ 532 nm” value ([3]; 4° C., 30 days)?
Answer: Its value is 95.7 area percent.

Question: What about the “HPLC Purity @ 532 nm” value ([3]; 4° C., 110 days) of the same molecule?
Answer: Its value is 93.9 area percent.

Question: What about the “HPLC Purity @ 532 nm” value ([3]; RT, 0 days) of the same molecule?
Answer: Its value is 91.8 area percent.

Question: What about the “HPLC Purity @ 532 nm” value ([3]; RT, 1 day) of the same molecule?
Answer: Its value is 91.3 area percent.

Question: And the “HPLC Purity @ 532 nm” value ([3]; RT, 7 days)?
Answer: The value was 92.5 area percent.

Question: And the “HPLC Purity @ 532 nm” value ([3]; RT, 30 days)?
Answer: The value was 95.1 area percent.

Question: And the “HPLC Purity @ 532 nm” value ([3]; RT, 110 days)?
Answer: Its value is 91.8 area percent.

Question: What about the “HPLC Purity @ 532 nm” value ([3]; −20° C., 0 days) of the same molecule?
Answer: Its value is 91.1 area percent.

Question: What about the “HPLC Purity @ 532 nm” value ([3]; −20° C., 1 day) of the same molecule?
Answer: The value was 93.9 area percent.

Question: What about the “HPLC Purity @ 532 nm” value ([3]; −20° C., 7 days) of the same molecule?
Answer: The value was 92.7 area percent.

Question: What about the “HPLC Purity @ 532 nm” value ([3]; −20° C., 30 days) of the same molecule?
Answer: Its value is 95.8 area percent.

Question: And the “HPLC Purity @ 532 nm” value ([3]; −20° C., 110 days)?
Answer: The value was 95.2 area percent.

Question: What about the “HPLC Purity @ 532 nm, Ave” value ([3]; −20° C.) of the same molecule?
Answer: Its value is 93.7 area percent.

Question: And the “toxicity (cell viability)” value (U2OS cells)?
Answer: The value was “No toxicity”.

Question: And the cell permeability [4]?
Answer: Its cell permeability is “non-permeability”.
